Measurements reported in patent publication US20190177279A1, “CARBOXYLIC ACID AROMATIC 1,2-CYCLOPROPYLAMIDES” (Bayer Pharma Aktiengesellschaft, priority 2017, published 2019).

Experiments:
human B1 receptor = target: T1, human B1 receptor (Homo sapiens, UniProt P46663); experiment: Calcium flux assay (FLIPR) with recombinant CHO-K1 cells expressing human B1 receptor; type: cell-based; conditions: absence of 0.1% BSA in assay buffer, agonist Lys-(Des-Arg)-Bradykinin, read-out: hB1 free IC50
T1 construct: host or cells: CHO-K1
T1 sequence (P46663 1-353): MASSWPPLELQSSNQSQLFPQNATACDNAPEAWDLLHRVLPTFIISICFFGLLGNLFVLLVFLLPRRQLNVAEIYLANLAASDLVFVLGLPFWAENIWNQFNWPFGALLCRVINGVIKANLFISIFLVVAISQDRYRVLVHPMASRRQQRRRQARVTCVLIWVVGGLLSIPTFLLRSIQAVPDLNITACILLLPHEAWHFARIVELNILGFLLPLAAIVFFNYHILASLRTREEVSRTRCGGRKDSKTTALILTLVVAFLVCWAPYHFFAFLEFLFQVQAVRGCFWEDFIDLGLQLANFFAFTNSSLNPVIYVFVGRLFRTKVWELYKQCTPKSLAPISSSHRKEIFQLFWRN
Protocol: The potency to inhibit the Bradykinin B1 receptors was determined for the example compounds of this invention in a cell-based fluorescent calcium-mobilisation assay. The assay measures the ability of example compounds to inhibit Bradykinin B1 receptor agonist-induced increase of intracellular free Ca^2+ in the cell line expressing B1 receptor. Specifically, calcium indicator—loaded cells are pre-incubated in the absence or presence of different concentrations of example compounds followed by the stimulation with a selective B1 receptor agonist peptide. The change of the intracellular Ca^2+ concentration is monitored with a fluorescent plate reader FLIPR (Molecular Devices).
Calcium flux Assay (FLIPR) with recombinant cells for Bradykinin B1 receptor antagonist, either in the presence (hB1 IC50) or absence (hB1 free IC50) of 0.1% BSA in assay buffer
CHO-K1 cell line expressing human B1 receptor was purchased from Euroscreen (Gosselies, Belgium, with reference name hB1-D1). The cells were grown in Nutrient Mixture Ham's F12 (Sigma) containing 10% Foetal bovine serum (Sigma) and 400 μg/mL G418 (Sigma), 5 μg/mL puromycin (Sigma).
For the calcium flux assay, 80% confluent cells were detached from the culture vessels with Versene (Gibco), and seeded into 384-well plates (Cell binding Surface; Corning, N.Y.; #3683) at a density of 15,000 cells per well. Cells were seeded in a volume of 50 μL in medium without antibiotics and incubated overnight in a humidified atmosphere with 5% CO2 at 37° C. […] The calcium indicator loaded cells were incubated at 37° C. for 2 hrs. Extracellular dye was then removed and each well was filled with 45 μL of assay buffer. Cell plates were kept in dark until used. Example compounds were assayed at 8 concentrations in triplicate. Serial 10-fold dilutions in 100% DMSO were made at a 100-times higher concentration than the final concentration, and then diluted 1:10 in assay buffer. 5 μL of each diluted compound was added to the well of cell plates (yielding final concentration with 1% DMSO), and incubated for 30 min at 28° C. before the addition of B1 receptor agonist on the FLIPR instrument.
Agonist plates contained the agonist Lys-(Des-Arg)-Bradykinin (Bachem, Brackley) at 3.5×EC90 in assay buffer with 1% DMSO. The addition of agonist 20 μl per well to the assay plate was carried out on the FLIPR instrument while continuously monitoring Ca^2+-dependent fluorescence at 538 nm. A peptide antagonist Lys-(Des-Arg-Leu)-Bradykinin (Bachem, Brackley) at 20 µM was used to determine the full inhibition as control.
Peak fluorescence was used to determine the response to agonist obtained at each concentration of example compound by the following equation:
% Response=100*(RFU(example compound)−RFU(control)/(RFU(DMSO)−RFU(control)) • Control=full inhibition by the peptide antagonist Lys-(Des-Arg-Leu)-Bradykinin at 20 μM
The response values were plotted against the logarithm of the compound concentrations. The compounds were tested in triplicates per plate and mean values were plotted in Excel XLfit to determine IC50 values, percentage of maximal inhibition and the Hill slopes.

[1] = target: T2, native human B1 receptors (Homo sapiens, UniProt P46663); experiment: Calcium flux assay (FLIPR) with IMR-90 human foetal lung fibroblasts after IL-1 induction; type: cell-based; conditions: IMR-90 fibroblasts induced with human IL-1; 0.1% BSA in assay buffer; agonist Lys-(Des-Arg)-Bradykinin at EC90; read-out: hB1 IC50 IMR90
T2 construct: which express native human B1 receptors after induction with human IL-1; Coriell Institute; host or cells: IMR-90 human foetal lung fibroblasts, induced with human IL-1
T2 sequence (P46663 1-353): T1 sequence (P46663 1-353)
Protocol: Calcium Flux Assay (FLIPR) with Human Fibroblasts for Bradykinin B1 Receptor Antagonist (hB1 IMR-90 IC50)
The Calcium flux Assay was carried out utilising IMR-90 human foetal lung fibroblasts (American Type Culture Collection, Rockville, Md.; and Coriell Institute, Camden, N.J.), which express native human B1 receptors after induction with human IL-1[…].
The fibroblasts were cultured in complete growth media comprised of Dulbecco's modified Eagle's medium (DMEM; Sigma) containing 10% foetal bovine serum, 4 mM L-glutamine, and 1% nonessential amino acids. The cells were maintained in a humidified atmosphere with 5% CO2 at 37° C. and were sub-cultured at a ratio of 1:3, every other day.
For the assay, IMR-90 fibroblasts were harvested using TrypLE Express (GIBCO/Invitrogen) and seeded into 384-well plates (Corning Cellbinding Surface, Cat. 3683) at a density of 15000 cells/well. The following day, cells were treated with 0.35 ng/mL human IL-1[…] in 10% FBS/MEM for 3 h to up-regulate B1 receptors. Induced cells were loaded with fluorescent calcium indicator by incubation with 2.5 μM Fluo-4/AM (Invitrogen) at 37° C., 5% CO2 for 2 h in the presence of 2.5 mM probenecid in 1% FBS/MEM. Extracellular dye was removed by washing with assay buffer (2.5 mM probenecid and 0.1% BSA in 20 mM HEPES/HBSS without bicarbonate or phenol red, pH 7.5). Example compounds were assayed at 8 concentrations in triplicate. After addition of example compounds to the cell plate and incubation for 30 min at 28° C., the addition of B1 agonist Lys-(Des-Arg)-Bradykinin (Bachem, Brackley) at a final concentration of EC90 was carried out on the FLIPR instrument while continuously monitoring Ca^2+-dependent fluorescence at 538 nm. A peptide antagonist Lys-(Des-Arg-Leu)-Bradykinin (Bachem, Brackley) at 20 μM was used to determine the full inhibition as control. IC50 values were determined by the same way described for the FLIPR assay with recombinant cells.

Compound	IC50 (human B1 receptor)	IC50 [1]
O=C(O)c1cc(NC(=O)C2CC2c2ccccc2OC(F)(F)F)ccc1-c1cnn(C2CCC2)c1 (racemic) [Example 10, 2-(1-cyclobutyl-1H-pyrazol-4-yl)-5-[({2-[2-(trifluoromethoxy)phenyl]cyclopropyl}carbonyl)amino]benzoic acid]	0.353 µM	
CC(C)(C)c1cnn(-c2ccc(NC(=O)C3CC3c3ccc(Cl)cc3)cc2C(=O)O)c1 (racemic) [Example 13, 2-(4-tert-Butyl-1H-pyrazol-1-yl)-5-({[2-(4-chlorophenyl)cyclopropyl]carbonyl}amino)benzoic acid]	1.76 µM	3.39 µM
CC(C)(C)c1ccn(-c2ccc(NC(=O)C3CC3c3ccc(Cl)cc3)cc2C(=O)O)n1 (racemic) [Example 14, 2-(3-tert-Butyl-1H-pyrazol-1-yl)-5-({[2-(4-chlorophenyl)cyclopropyl]carbonyl}amino)benzoic acid]	2.22 µM	
Cc1ccc(-c2ccc(NC(=O)C3CC3c3ccc(Cl)cc3)cc2C(=O)O)cn1 (racemic) [Example 15, 5-({[2-(4-chlorophenyl)cyclopropyl]carbonyl}amino)-2-(6-methylpyridin-3-yl)benzoic acid]	2.42 µM	12 µM
CC(F)(F)c1ccc(-c2ccc(NC(=O)C3CC3c3ccccc3OC(F)(F)F)cc2C(=O)O)cn1 (racemic) [Example 16, 2-[6-(1,1-difluoroethyl)pyridin-3-yl]-5-[({2-[2-(trifluoromethoxy)phenyl]cyclopropyl}carbonyl)amino]benzoic acid]	2.57 µM	
CC(F)(F)c1ccc(-c2ccc(NC(=O)C3CC3c3cccc(Cl)c3)cc2C(=O)O)cn1 (racemic) [Example 17]	2.47 µM	
CC(F)(F)c1ccc(-c2ccc(NC(=O)C3CC3c3cccc(C(F)(F)F)c3)cc2C(=O)O)cn1 (racemic) [Example 18, 2-[6-(1,1-difluoroethyl)pyridin-3-yl]-5-[({2-[3-(trifluoromethyl)phenyl]cyclopropyl}carbonyl)amino]bentoic acid]	2.51 µM	
CC(F)(F)c1ccc(-c2ccc(NC(=O)C3CC3c3ccc(Cl)cc3)cc2C(=O)O)cn1 (racemic) [Example 19, 5-({[2-(4-chlorophenyl)cyclopropyl]carbonyl}amino)-2-[6-(1,1-difluoroethyl)pyridin-3-yl]benzoic acid]	2.49 µM	
CCC(F)(F)c1ccc(-c2ccc(NC(=O)C3CC3c3ccccc3OC(F)(F)F)cc2C(=O)O)cn1 (racemic) [Example 20, 2-[6-(1,1-difluoropropyl)pyridin-3-yl]-5-[({2-[2-(trifluoromethoxy)phenyl]cyclopropyl}carbonyl)amino]benzoic acid]	1.52 µM	
CCC(F)(F)c1ccc(-c2ccc(NC(=O)C3CC3c3cccc(C(F)(F)F)c3)cc2C(=O)O)cn1 (racemic) [Example 21, 2-[6-(1,1-difluoropropyl)pyridin-3-yl]-5-[({2-[3-(trifluoromethyl)phenyl]cyclopropyl}carbonyl)amino]benzoic acid]	0.403 µM	
CCC(F)(F)c1ccc(-c2ccc(NC(=O)C3CC3c3cccc(Cl)c3)cc2C(=O)O)cn1 (racemic) [Example 22, 5-({[2-(3-chlorophenyl)cyclopropyl]carbonyl}amino)-2-[6-(1,1-difluoropropyl)pyridin-3-yl]benzoic acid]	1.19 µM	
O=C(O)c1cc(NC(=O)C2CC2c2cccc(Cl)c2)cc(F)c1-c1cnn(C2CCC2)c1 (single isomer, unassigned; (+)) [Example 8, (+)-5-({[2-(3-chlorophenyl)cyclopropyl]carbonyl}amino)-2-(1-cyclobutyl-1H-pyrazol-4-yl)-3-fluorobenzoic acid]	1.13 µM	
(−)-5-({[trans-2-(4-chlorophenyl)cyclopropyl]carbonyl}amino)-2-(1-cyclobutyl-1H-pyrazol-4-yl)-3-fluorobenzoic acid [Example 4]	1.18 µM	

The next compounds have a lower IC50 (human B1 receptor) than those just listed; values first:

IC50 (human B1 receptor)	IC50 [1]	Compound
0.11 µM		Cc1cccc(C2CC2C(=O)Nc2ccc(-c3cnn(C4CCC4)c3)c(C(=O)O)c2)c1 (racemic) [Example 5, 2-(1-cyclobutyl-1H-pyrazol-4-yl)-5-({[2-(3-methylphenyl)cyclopropyl]carbonyl}amino) benzoic acid]
0.272 µM		O=C(O)c1cc(NC(=O)C2CC2c2ccc(Cl)cc2)ccc1-c1cnn(C2CCC2)c1 (racemic) [Example 6, 5-({[2-(4-chlorophenyl)cyclopropyl]carbonyl}amino)-2-(1-cyclobutyl-1H-pyrazol-4-yl)benzoic acid]
0.126 µM		O=C(O)c1cc(NC(=O)C2CC2c2cccc(C(F)(F)F)c2)ccc1-c1cnn(C2CCC2)c1 (racemic) [Example 12, 2-(1-cyclobutyl-1H-pyrazol-4-yl)-5-[({2-[3-(trifluoromethyl)phenyl]cyclopropyl}carbonyl)amino]benzoic acid]
0.117 µM		O=C(O)c1cc(NC(=O)C2CC2c2ccc(Cl)cc2)ccc1-c1cnn(C2CCC2)c1 (single isomer, unassigned) [Example 7, 5-({[2-(4-chlorophenyl)cyclopropyl]carbonyl}amino)-2-(1-cyclobutyl-1H-pyrazol-4-yl)benzoic acid]
0.032 µM		O=C(O)c1cc(NC(=O)C2CC2c2cccc(Cl)c2)ccc1-c1cnn(C2CCC2)c1 (single isomer, unassigned) [Example 11, 5-({[2-(3-chlorophenyl)cyclopropyl]carbonyl}amino)-2-(1-cyclobutyl-1H-pyrazol-4-yl)benzoic acid]
0.017 µM		O=C(O)c1cc(NC(=O)C2CC2c2cccc(Cl)c2)cc(F)c1-c1cnn(C2CCC2)c1 (single isomer, unassigned; (-)) [Example 9, (−)-5-({[2-(3-chlorophenyl)cyclopropyl]carbonyl}amino)-2-(1-cyclobutyl-1H-pyrazol-4-yl)-3-fluorobenzoic acid]
